Measured values reported in PubChem BioAssay (NCI).
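Test compounds were applied to cells in 96-well plates for 48 hours at 5 doses. GI50 marks 50% less growth. TGI marks complete inhibition of growth.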

Tests used:
Assay in all cases: growth of human tumour cells (NCI), 48 h
OVCAR-4 ovarian = test system: OVCAR-4 ovarian
HL-60(TB) leukemia = test system: HL-60(TB) leukemia
U251 CNS = test system: U251 CNS
T-47D breast = test system: T-47D breast
SNB-75 CNS = test system: SNB-75 CNS
MDA-MB-231 breast = test system: MDA-MB-231 breast
HCT-15 colon = test system: HCT-15 colon
SNB-19 CNS = test system: SNB-19 CNS
COLO 205 colon = test system: COLO 205 colon
M14 melanoma = test system: M14 melanoma

In the case of [C](#Cc1ccccc1)[Hg][C]#Cc1ccccc1, the GI50 (OVCAR-4 ovarian) is reported as 18.6 µM, the TGI (OVCAR-4 ovarian) is reported as 45.8 µM and the GI50 (HL-60(TB) leukemia) is reported as 27.7 µM. For the same compound, the TGI (HL-60(TB) leukemia) was over 100 µM, the GI50 (U251 CNS) was 22.4 µM and the TGI (U251 CNS) was 43.9 µM. It also gave a GI50 (T-47D breast) of 28.8 µM, a TGI (T-47D breast) of 79.1 µM and a GI50 (SNB-75 CNS) of over 100 µM. The TGI (SNB-75 CNS) was over 100 µM, the GI50 (MDA-MB-231 breast) was 20.8 µM and the TGI (MDA-MB-231 breast) was 44.8 µM. It also gave a GI50 (HCT-15 colon) of 21.1 µM, a TGI (HCT-15 colon) of 43.7 µM and a GI50 (SNB-19 CNS) of 47.3 µM. It also gave a TGI (SNB-19 CNS) of over 100 µM, a GI50 (COLO 205 colon) of 22.2 µM and a TGI (COLO 205 colon) of 48 µM. It also gave a GI50 (M14 melanoma) of 75.1 µM and a TGI (M14 melanoma) of over 100 µM.
